Key:
purple nutsedge = experiment: Test B pre/postemergence purple nutsedge; format: in vivo, Cyperus rotundus; details: for Nutsedge plant response rating: scale of 0 to 10 where 0 is no effect and 10 is complete control
In short: (§1)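 Response is a visual 0-to-10 score relative to untreated plants, where 0 means no effect and 10 means complete control, taken twelve to sixteen days after application. Treatments went onto soil at planting and onto foliage of 1- to 4-leaf plants, using a surfactant-containing non-phytotoxic solvent.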

velvetleaf = experiment: Test B pre/postemergence velvetleaf; format: in vivo, Abutilon theophrasti; details: for Velvetleaf plant response rating: scale of 0 to 10 where 0 is no effect and 10 is complete control
In short: as §1

rape = experiment: Test B pre/postemergence rape; format: in vivo, Brassica napus; details: for Rape plant response rating: scale of 0 to 10 where 0 is no effect and 10 is complete control
In short: as §1

wild oat = experiment: Test B pre/postemergence wild oat; format: in vivo, Avena fatua; details: for Wild oats plant response rating: scale of 0 to 10 where 0 is no effect and 10 is complete control
In short: as §1

giant foxtail = experiment: Test B pre/postemergence giant foxtail; format: in vivo, Setaria faberii; details: for Giant foxtail plant response rating: scale of 0 to 10 where 0 is no effect and 10 is complete control
In short: as §1

soybean = experiment: Test B pre/postemergence soybean; format: in vivo, Glycine max; details: for Soybean plant response rating: scale of 0 to 10 where 0 is no effect and 10 is complete control
In short: as §1

pigweed = experiment: Test B pre/postemergence pigweed; format: in vivo, Amaranthus retroflexus; details: for Redroot pigweed plant response rating: scale of 0 to 10 where 0 is no effect and 10 is complete control
In short: as §1

corn = experiment: Test B pre/postemergence corn; format: in vivo, Zea mays; details: for Corn plant response rating: scale of 0 to 10 where 0 is no effect and 10 is complete control
In short: as §1

crabgrass = experiment: Test B pre/postemergence crabgrass; format: in vivo, Digitaria sanguinalis; details: for Crabgrass plant response rating: scale of 0 to 10 where 0 is no effect and 10 is complete control
In short: as §1

cocklebur = experiment: Test B pre/postemergence cocklebur; format: in vivo, Xanthium strumarium; details: for Cocklebur plant response rating: scale of 0 to 10 where 0 is no effect and 10 is complete control
In short: as §1

blackgrass = experiment: Test B pre/postemergence blackgrass; format: in vivo, Alopecurus myosuroides; details: for Blackgrass plant response rating: scale of 0 to 10 where 0 is no effect and 10 is complete control
In short: as §1

morningglory = experiment: Test B pre/postemergence morningglory; format: in vivo, Ipomoea hederacea; details: for Morningglory plant response rating: scale of 0 to 10 where 0 is no effect and 10 is complete control
In short: as §1

surinam grass = experiment: Test B pre/postemergence surinam grass; format: in vivo, Brachiaria decumbens; details: for B. signalgrass plant response rating: scale of 0 to 10 where 0 is no effect and 10 is complete control
In short: as §1

wheat = experiment: Test B pre/postemergence wheat; format: in vivo, Triticum aestivum; details: for Wheat plant response rating: scale of 0 to 10 where 0 is no effect and 10 is complete control
In short: as §1

[1] = Postemergence, Rate 125 g/ha, scale 0 to 10, 0 is no effect, 10 is complete control
[2] = Postemergence, Rate 250 g/ha, scale 0 to 10, 0 is no effect, 10 is complete control
[3] = Preemergence, Rate 62 g/ha, scale 0 to 10 (0 no effect, 10 complete control)
[4] = Rate 500 g/ha, Postemergence, scale 0 to 10, 0 no effect, 10 complete control

CC1CC1n1c(=O)on(C(=O)N(c2ccc(Cl)cc2)C(C)C)c1=O (stereo not shown) [Compound 369]
Plant response rating, Nutsedge (purple nutsedge; [1]): 0
Plant response rating, Nutsedge (purple nutsedge; [2]): 0
Plant response rating, Nutsedge (purple nutsedge; [3]): 0
Nutsedge plant response rating (0 to 10 scale) (purple nutsedge; Preemergence, Rate 125 g/ha): 0
Nutsedge plant response rating (purple nutsedge; Preemergence, Rate 250 g/ha): 0
Nutsedge plant response rating (purple nutsedge; Preemergence, Rate 500 g/ha): 5
Nutsedge plant response rating (purple nutsedge; Rate 62 g/ha, Postemergence): 0
Plant response rating, Nutsedge (purple nutsedge; [4]): 3
Plant response rating, Velvetleaf (velvetleaf; [1]): 0
Plant response rating, Velvetleaf (velvetleaf; [2]): 0
Plant response rating, Velvetleaf (velvetleaf; [3]): 0
Velvetleaf plant response rating (0 to 10 scale) (velvetleaf; Preemergence, Rate 125 g/ha): 0
Velvetleaf plant response rating (velvetleaf; Preemergence, Rate 250 g/ha): 0
Velvetleaf plant response rating (velvetleaf; Preemergence, Rate 500 g/ha): 6
Velvetleaf plant response rating (velvetleaf; Rate 62 g/ha, Postemergence): 0
Plant response rating, Velvetleaf (velvetleaf; [4]): 3
Plant response rating, Rape (rape; [1]): 0
Plant response rating, Rape (rape; [2]): 0
Plant response rating, Rape (rape; [3]): 0
Rape plant response rating (0 to 10 scale) (rape; Preemergence, Rate 125 g/ha): 0
Rape plant response rating (rape; Preemergence, Rate 250 g/ha): 2
Rape plant response rating (rape; Preemergence, Rate 500 g/ha): 5
Rape plant response rating (rape; Rate 62 g/ha, Postemergence): 0
Plant response rating, Rape (rape; [4]): 3
Plant response rating, Wild oats (wild oat; [1]): 0
Plant response rating, Wild oats (wild oat; [2]): 0
Plant response rating, Wild oats (wild oat; [3]): 0
Wild oats plant response rating (0 to 10 scale) (wild oat; Preemergence, Rate 125 g/ha): 0
Wild oats plant response rating (wild oat; Preemergence, Rate 250 g/ha): 0
Wild oats plant response rating (wild oat; Preemergence, Rate 500 g/ha): 7
Wild oats plant response rating (wild oat; Rate 62 g/ha, Postemergence): 0
Plant response rating, Wild oats (wild oat; [4]): 4
Plant response rating, Giant foxtail (giant foxtail; [1]): 0
Plant response rating, Giant foxtail (giant foxtail; [2]): 2
Plant response rating, Giant foxtail (giant foxtail; [3]): 8
Giant foxtail plant response rating (0 to 10 scale) (giant foxtail; Preemergence, Rate 125 g/ha): 9
Giant foxtail plant response rating (giant foxtail; Preemergence, Rate 250 g/ha): 10
Giant foxtail plant response rating (giant foxtail; Preemergence, Rate 500 g/ha): 10
Giant foxtail plant response rating (giant foxtail; Rate 62 g/ha, Postemergence): 0
Plant response rating, Giant foxtail (giant foxtail; [4]): 9
Plant response rating, Soybean (soybean; [1]): 0
Plant response rating, Soybean (soybean; [2]): 1
Plant response rating, Soybean (soybean; [3]): 0
Soybean plant response rating (0 to 10 scale) (soybean; Preemergence, Rate 125 g/ha): 0
Soybean plant response rating (soybean; Preemergence, Rate 250 g/ha): 0
Soybean plant response rating (soybean; Preemergence, Rate 500 g/ha): 4
Soybean plant response rating (soybean; Rate 62 g/ha, Postemergence): 0
Plant response rating, Soybean (soybean; [4]): 1
Plant response rating, Redroot pigweed (pigweed; [1]): 0
Plant response rating, Redroot pigweed (pigweed; [2]): 0
Plant response rating, Redroot pigweed (pigweed; [3]): 0
Redroot pigweed plant response rating (0 to 10 scale) (pigweed; Preemergence, Rate 125 g/ha): 4
Redroot pigweed plant response rating (pigweed; Preemergence, Rate 250 g/ha): 10
Redroot pigweed plant response rating (pigweed; Preemergence, Rate 500 g/ha): 10
Redroot pigweed plant response rating (pigweed; Rate 62 g/ha, Postemergence): 0
Plant response rating, Redroot pigweed (pigweed; [4]): 4
Plant response rating, Corn (corn; [1]): 0
Plant response rating, Corn (corn; [2]): 0
Plant response rating, Corn (corn; [3]): 0
Corn plant response rating (0 to 10 scale) (corn; Preemergence, Rate 125 g/ha): 0
Corn plant response rating (corn; Preemergence, Rate 250 g/ha): 0
Corn plant response rating (corn; Preemergence, Rate 500 g/ha): 0
Corn plant response rating (corn; Rate 62 g/ha, Postemergence): 0
Plant response rating, Corn (corn; [4]): 0
Plant response rating, Crabgrass (crabgrass; [1]): 0
Plant response rating, Crabgrass (crabgrass; [2]): 2
Plant response rating, Crabgrass (crabgrass; [3]): 5
Crabgrass plant response rating (0 to 10 scale) (crabgrass; Preemergence, Rate 125 g/ha): 7
Crabgrass plant response rating (crabgrass; Preemergence, Rate 250 g/ha): 9
Crabgrass plant response rating (crabgrass; Preemergence, Rate 500 g/ha): 10
Crabgrass plant response rating (crabgrass; Rate 62 g/ha, Postemergence): 0
Plant response rating, Crabgrass (crabgrass; [4]): 9
Plant response rating, Cocklebur (cocklebur; [1]): 0
Plant response rating, Cocklebur (cocklebur; [2]): 0
Plant response rating, Cocklebur (cocklebur; [3]): 0
Cocklebur plant response rating (0 to 10 scale) (cocklebur; Preemergence, Rate 125 g/ha): 0
Cocklebur plant response rating (cocklebur; Preemergence, Rate 250 g/ha): 0
Cocklebur plant response rating (cocklebur; Preemergence, Rate 500 g/ha): 0
Cocklebur plant response rating (cocklebur; Rate 62 g/ha, Postemergence): 0
Plant response rating, Cocklebur (cocklebur; [4]): 0
Plant response rating, Blackgrass (blackgrass; [1]): 0
Plant response rating, Blackgrass (blackgrass; [2]): 5
Plant response rating, Blackgrass (blackgrass; [3]): 0
Blackgrass plant response rating (0 to 10 scale) (blackgrass; Preemergence, Rate 125 g/ha): 0
Blackgrass plant response rating (blackgrass; Preemergence, Rate 250 g/ha): 2
Blackgrass plant response rating (blackgrass; Preemergence, Rate 500 g/ha): 5
Blackgrass plant response rating (blackgrass; Rate 62 g/ha, Postemergence): 0
Plant response rating, Blackgrass (blackgrass; [4]): 5
Plant response rating, Morningglory (morningglory; [1]): 10
Plant response rating, Morningglory (morningglory; [2]): 10
Plant response rating, Morningglory (morningglory; [3]): 0
Morningglory plant response rating (0 to 10 scale) (morningglory; Preemergence, Rate 125 g/ha): 0
Morningglory plant response rating (morningglory; Preemergence, Rate 250 g/ha): 0
Morningglory plant response rating (morningglory; Preemergence, Rate 500 g/ha): 0
Morningglory plant response rating (morningglory; Rate 62 g/ha, Postemergence): 7
Plant response rating, Morningglory (morningglory; [4]): 10
Plant response rating, B. signalgrass (surinam grass; [1]): 0
Plant response rating, B. signalgrass (surinam grass; [2]): 0
Plant response rating, B. signalgrass (surinam grass; [3]): 0
B. signalgrass plant response rating (0 to 10 scale, 0 is no effect, 10 is complete control) (surinam grass; Preemergence, Rate 125 g/ha): 0
B. signalgrass plant response rating (surinam grass; Preemergence, Rate 250 g/ha): 2
B. signalgrass plant response rating (surinam grass; Preemergence, Rate 500 g/ha): 2
B. signalgrass plant response rating (surinam grass; Rate 62 g/ha, Postemergence): 0
Plant response rating, B. signalgrass (surinam grass; [4]): 3
Plant response rating, Wheat (wheat; [1]): 0
Plant response rating, Wheat (wheat; [2]): 0
Plant response rating, Wheat (wheat; [3]): 0
Wheat plant response rating (0 to 10 scale) (wheat; Preemergence, Rate 125 g/ha): 0
Wheat plant response rating (wheat; Preemergence, Rate 250 g/ha): 0
Wheat plant response rating (wheat; Preemergence, Rate 500 g/ha): 0
Wheat plant response rating (wheat; Rate 62 g/ha, Postemergence): 0
Plant response rating, Wheat (wheat; [4]): 4

From patent US6737383B1, “Herbicidal oxadiazolidines” (priority 1999, dated 2004)
